# Values quoted from earlier work as cited in publication PMC11400633, “Peptides inhibiting the assembly of monomeric human L‐lactate dehydrogenase into catalytically active homotetramer decrease the synthesis of lactate in cultured cells” (Protein Science : A Publication of the Protein Society, 2024).
# pKd: −log10 of the molar value.
# How the values were obtained:
# dimeric LDH‐B = details: ref Thabault et al., 2020; read-out: K D for dimeric LDH‐B; cited from earlier work
# Source text: (§1) In particular, the loss of activity related to the dissociation of tetrameric LDH‐A (Hermann et al., [1981]; Pasti et al., [2022]) prompts the search for peptides able to interfere with the quaternary structure of this enzyme. Peptides can indeed mimic a secondary structure element supposed to be a major determinant of the reciprocal interactions engaged by the subunits of an oligomeric protein (Wang et al., [2021]). Nevertheless, it should be noted that the effectivenes ...
# LDH‐5 = details: LDH-5 exposed to pH 2.5, incubated with peptide 2 min, then pH 7.4; ref Nadal‐Bufi et al., 2021; cited from earlier work
# Source text: as §1, with “... || Structurally speaking, the four subunits of LDH‐5 are arranged as a binary association of dimers, with their N‐ and C‐terminal regions reciprocally engaged in dimer‐dimer interactions (Read et al., [2001]). […] Moreov ...” for “...”
# LDH‐A = details: dynamic light scattering; shift from about 240 kDa; ref Jafary et al., 2019; cited from earlier work
# Source text: as §1
Substance,apparent LDH‐A molecular mass in the presence of peptide (LDH‐A),other results
ATLKEKLI,,pKd (dimeric LDH‐B): 3.00
Ac-QNGISDLVK-NH2 [Peptide C1],,action against LDH‐A (in words) (LDH‐5): ineffective
IYNLLK [hexamer of the literature targeting the C‐terminal region of LDH‐A],ca. 100 kDa,
KVVYNV [hexamer of the literature targeting the C‐terminal region of LDH‐A],ca. 100 kDa,
